{"source": "paper PMC11396935", "about": "“Exploration of Compounds with 2-Phenylbenzo[d]oxazole Scaffold as Potential Skin-Lightening Agents through Inhibition of Melanin Biosynthesis and Tyrosinase Activity” (Molecules, 2024)", "key": {"mushroom tyrosinase": {"molecular_target": "T1, mushroom tyrosinase (Agaricus bisporus, UniProt C7FF04)", "T1 construct": "purchased Sigma-Aldrich (St. Louis, MO, USA)", "T1 sequence (C7FF04 1-392 limits assumed)": "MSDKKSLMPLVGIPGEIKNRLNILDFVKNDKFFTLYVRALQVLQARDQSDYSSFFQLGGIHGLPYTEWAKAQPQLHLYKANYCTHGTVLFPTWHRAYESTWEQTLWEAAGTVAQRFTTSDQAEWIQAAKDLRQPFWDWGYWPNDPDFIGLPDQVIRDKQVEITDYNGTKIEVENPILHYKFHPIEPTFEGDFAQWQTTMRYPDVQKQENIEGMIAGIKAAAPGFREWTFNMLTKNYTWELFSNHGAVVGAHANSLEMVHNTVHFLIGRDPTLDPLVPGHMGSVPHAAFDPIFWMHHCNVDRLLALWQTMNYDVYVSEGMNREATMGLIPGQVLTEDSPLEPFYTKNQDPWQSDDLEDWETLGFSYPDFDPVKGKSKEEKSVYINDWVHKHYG", "assay": "Mushroom tyrosinase activity inhibition assay (L-tyrosine or L-dopa as substrate)", "type": "biochemical", "settings": "mushroom tyrosinase, 37 °C, mean ± SEM of triplicates", "method": "3.3. Tyrosinase Activity Assay Using Mushroom Tyrosinase\nThe tyrosinase inhibitory activity of the 2-phenylbenzoxazoles was evaluated using a mushroom tyrosinase activity assay, following a previously described method. An aqueous substrate mixture, consisting of phosphate buffer (pH 6.5; 17.2 mM) and L-tyrosine or L-dopa (345 μM), was prepared. A 96-well plate containing the test sample in dimethyl sulfoxide (DMSO) solution (10 μL), aqueous mushroom tyrosinase solution (20 μL; 200 units), and aqueous substrate mixture (170 μL) in each well was incubated at 37 °C for 15 min for L-dopa and 30 min for L-tyrosine, respectively."}, "[1]": {"assay": "ABTS radical cation scavenging assay", "settings": "100 μM", "method": "For ABTS^+• scavenging experiments, ABTS^+• was generated by oxidizing ABTS using potassium persulfate. All test samples (Trolox [TR; positive material] and 1–15) were used at a final concentration of 100 μM. […] Both compounds share a common catechol structure. […] Similar results were obtained in the DPPH radical scavenging experiment. […] Compounds 4, 9, and 14, bearing a 4-hydroxy-3-methoxyphenyl, scavenged ABTS^+• moderately (23–51%).\n3.15. 2,2′-Azino-bis(3-ethylbenzothiazoline-6-sulfonic Acid) (ABTS) Radical Cation Scavenging Assay\nThe effect of the 2-phenylbenzoxazole compounds 1–15 on radical scavenging was assessed using an ABTS assay, as previously reported. An ABTS aqueous solution (7 mM) was mixed with a K2S2O8 aqueous solution (2.45 mM) in equal volumes (each 20 mL) and incubated in the dark for 20 h at 25 °C to generate ABTS^+•. The ABTS^+• solution was then diluted with pure EtOH to adjust the absorbance of the solution to 0.7 ± 0.02 at 730 nm. The test samples (1–15 and Trolox [positive control]) were dissolved in a co-solvent of EtOH and DMSO (9:1, v/v) to make a 1 mM solution. The diluted ABTS^+• solution was mixed with the test sample solution at a volume ratio of 9:1 (90 μL:10 μL) and the mixture was stored for 2 min at 20 °C in the dark. The optical density was measured at 730 nm using an ELISA reader at 1 min intervals for 10 min. All test samples were used at a final concentration of 100 µM.\nABTS^+• radical scavenging activity (%) = [(ODcon − ODsam)/ODcon] × 100, where ODsam and ODcon represent the absorbances of the test sample and the control, respectively."}, "[2]": {"assay": "DPPH radical scavenging assay", "settings": "500 μM, 30 min in the dark", "method": "The DPPH radical scavenging activity was assessed by mixing DPPH solution with compounds 1–15 and incubating them in the dark for 30 min. All test samples were evaluated at 500 μM.\n3.14. 2,2′-Diphenyl-1-picrylhydrazyl (DPPH) Radical Scavenging Assay\nAs previously reported, the ability of compounds 1–15 to remove DPPH radicals was evaluated. A 0.2 mM methanolic DPPH solution was mixed with a 5 mM L-ascorbic acid aqueous solution or 5 mM DMSO solution of 1–15 at a ratio of […] (v/v, 180 μL:20 μL) in each well of a 96-well microplate. After incubating the microplate in the dark for 30 min, the optical density of each well was measured at 517 nm using an ELISA reader. DPPH scavenging activity (%) = (OD[control] − OD[sample]) × 100/OD[control]."}, "[3]": {"assay": "ROS scavenging assay (SIN-1/DCFH)", "settings": "40 μM; SIN-1 10 μM; 30 min", "method": "For ROS scavenging experiments, test samples (1–15 and Trolox [positive control]; 40 μM) containing 3-morpholinosydnonimine (SIN-1; 10 μM) were mixed with a 2′,7′-dichlorodihydrofluorescein (DCFH) solution. After 30 min, the ROS scavenging activity of the test samples was assessed.\n3.16. Reactive Oxygen Species (ROS) Scavenging Assay\nThe ability of compounds 1–15 to remove ROS was assayed as previously reported. […] A 3-morpholinosydnonimine (SIN-1) solution (10 μL, 250 μM) and phosphate buffer (180 μL) were mixed with a test sample (1–15; 10 μL, 1 mM) in DMSO solution or Trolox (10 μL, 1 mM; positive control) in each well of a 96-well black plate and left in the dark 25 °C for 5 min. The SIN-1-test sample mixture was then combined with the generated DCFH solution (50 μL). Fluorescence was measured in 5 min intervals for 30 min at 530 nm using a microplate reader (Berthold Advances GmbH & Co., Bad Wildbad, Germany) with excitation at 485 nm."}, "zebrafish larvae [4]": {"system": "zebrafish larvae", "assay": "In vivo depigmentation experiment using zebrafish embryos", "settings": "kojic acid 20 mM; compound 8 0.025 mM; compound 13 0.025 and 0.05 mM; 76 hpf", "experimental": "Zebrafish embryos were used in this study. […] The zebrafish embryos were obtained through natural mating in our laboratory. The chorion of the zebrafish embryos was removed 24 h post-fertilization (hpf).\nIn Vivo Depigmentation Experiment Using Zebrafish Embryos\nA depigmentation experiment was performed using zebrafish embryos, as previously described [38, 49, 50]. Wild-type zebrafish (Danio rerio) were maintained in a fish tank at 28 °C and fed with dried brine shrimp (Artemia salina, San Francisco Bay Brand, San Francisco, CA, USA) three times daily. The zebrafish embryos were obtained through natural mating in mating cages. The obtained zebrafish embryos were transferred to a 90 mm culture dish containing 200 μL of E3-methylene blue (MB) solution, consisting of 0.001% MB, 0.17 mM KCl, 0.33 mM CaCl2, 0.33 mM MgSO4, and 5 mM NaCl, and incubated in an incubator set at 28 °C. At 24 h post-fertilization (hpf), the zebrafish embryos were dechorionated using pronase (Sigma-Aldrich, St. Louis, MO, USA). […] The 48-well plates were incubated in an incubator set at 28 °C for 48 h. At 76 hpf, the zebrafish larvae were mounted on a 1% methylcellulose block after anesthesia with tricaine methanesulfonate (Thermo Fisher Scientific, Waltham, MA, USA), and photographs of the zebrafish larvae were obtained using a SMZ745T stereoscopic microscope (Nikon, Tokyo, Japan). The pigmented areas of the zebrafish larvae were determined using the CS analyzer 3.0 image analysis software (ATTO, Tokyo, Japan)."}, "zebrafish larvae [5]": {"system": "zebrafish larvae", "assay": "Melanin content in zebrafish larvae", "type": "in vivo, zebrafish (Danio rerio)", "settings": "compound 8 0.025 mM; kojic acid 20 mM; treated 28 hpf, read 74 hpf", "method": "(§1) . Zebrafish embryos obtained by natural mating were dechorionated at 24 hpf and treated with compound 8 (0.025 mM) or kojic acid (20 mM) at 28 hpf. After 46 h, the melanin content and tyrosinase activity were determined.\n(§2) 3.13. Measurement of Melanin Content and Tyrosinase Activity in Zebrafish Larvae\n(§3) The effects of the 2-phenylbenzo[d]oxazole compound 8 on the melanin content and tyrosinase activity in the zebrafish larvae were assessed using a previously defined procedure with minor modifications. To quantify the melanin content in the zebrafish larvae, zebrafish embryos were obtained through natural mating and operated in a similar manner to the in vivo depigmentation experiment (25 zebrafish embryos per well in a 24-well plate; dechorionation at 24 hpf; test sample treatment (8 [0.025 mM] and kojic acid [20 mM; positive control]) at 28 hpf). Melanin quantification and tyrosinase activity were quantified at 74 hpf. For melanin quantification, the zebrafish larvae were lysed in RIPA buffer (Biosesang, Gyeonggi-do, Korea) and homogenized using a sonicator. […] The absorbance was measured at 405 nm using a microplate reader. For the tyrosinase activity measurement, the supernatants were transferred to new Eppendorf tubes and the protein was quantified using a Pierce BCA protein assay kit, with the absorbance being measured at 570 nm using a microplate reader. […]"}, "[6]": {"system": "B16F10 tyrosinase in situ", "settings": "compounds 1, 2, 5 μM; kojic acid 5 μM; α-MSH + IBMX 72 h; excess L-dopa", "experimental": "To evaluate the effect of the compounds on in situ tyrosinase activity, an experiment using B16F10 cells was performed as previously described [34, 35]. […] Excess L-dopa was added to increase their melanin production prior to the acquisition of cell images.\nIn Situ Tyrosinase Activity Assay Using B16F10 Cells and L-dopa\nIn situ tyrosinase activity was measured in B16F10 cells using L-dopa, as reported previously [34]. […] The cells were processed as follows: (1) fixing with 4% paraformaldehyde for 40 min, (2) washing with PBS, and (3) permeabilizing with 0.1% Triton X-100 for 2 min. After washing with PBS, the cells were stained with L-dopa (2 mM; 500 μL) at 37 °C for 2 h. Stained images were collected using a camera connected to a microscope (Motic, Hong Kong)."}, "[7]": {"system": "tyrosinase activity in zebrafish larvae", "assay": "Tyrosinase activity in zebrafish larvae", "type": "in vivo, zebrafish (Danio rerio)", "settings": "compound 8 0.025 mM; kojic acid 20 mM; treated 28 hpf, read 74 hpf", "method": "as §1, §2, §3"}, "[8]": {"settings": "substrate L-dopa, 15 min, read-out: IC50 Values, L-Dopa"}, "[9]": {"settings": "substrate L-tyrosine, 30 min, read-out: IC50 Values, L-Tyrosine"}}, "note": "Read-outs that look alike come from different tables or passages of the source."}
{"smiles": "Cc1ccc2nc(-c3ccc(O)cc3)oc2c1", "note": "[Compound 1, 4-(6-Methylbenzo[d]oxazol-2-yl)phenol]", "values": [{"measurement": "IC50", "setting": "mushroom tyrosinase; [8]", "value": "> 200", "unit": "µM"}, {"measurement": "IC50", "setting": "mushroom tyrosinase; [9]", "value": "153 ± 14.3", "unit": "µM"}]}
{"smiles": "COc1ccc(-c2nc3ccc(C)cc3o2)c(OC)c1", "note": "[Compound 2, 2-(2,4-Dimethoxyphenyl)-6-methylbenzo[d]oxazole]", "values": [{"measurement": "ABTS+• scavenging activity (% inhibition)", "setting": "[1]", "value": "less than 5%"}, {"measurement": "IC50", "setting": "mushroom tyrosinase; [8]", "value": "> 200", "unit": "µM"}, {"measurement": "IC50", "setting": "mushroom tyrosinase; [9]", "value": "> 200", "unit": "µM"}]}
{"smiles": "COc1ccc(-c2nc3ccc(C)cc3o2)cc1O", "note": "[Compound 4, 2-Methoxy-5-(6-methylbenzo[d]oxazol-2-yl)phenol]", "values": [{"measurement": "IC50", "setting": "mushroom tyrosinase; [8]", "value": "> 200", "unit": "µM"}, {"measurement": "IC50", "setting": "mushroom tyrosinase; [9]", "value": "> 200", "unit": "µM"}]}
{"smiles": "Cc1ccc2nc(-c3ccc(O)c(O)c3)oc2c1", "note": "[Compound 5, 4-(6-Methylbenzo[d]oxazol-2-yl)benzene-1,2-diol]", "values": [{"measurement": "ABTS+• scavenging activity (% inhibition)", "setting": "[1]", "value": 13, "unit": "%"}, {"measurement": "DPPH radical scavenging activity (in words)", "setting": "[2]", "value": "weak DPPH radical scavenging effect"}, {"measurement": "IC50", "setting": "mushroom tyrosinase; [8]", "value": "187 ± 30.3", "unit": "µM"}, {"measurement": "IC50", "setting": "mushroom tyrosinase; [9]", "value": "144 ± 3.1", "unit": "µM"}, {"measurement": "ROS scavenging activity", "setting": "[3]", "value": "strong ROS scavenging efficacy"}]}
{"smiles": "Oc1ccc(-c2nc3ccc(Cl)cc3o2)cc1", "note": "[Compound 6, 4-(6-Chlorobenzo[d]oxazol-2-yl)phenol]", "values": [{"measurement": "IC50", "setting": "mushroom tyrosinase; [8]", "value": "> 200", "unit": "µM"}, {"measurement": "IC50", "setting": "mushroom tyrosinase; [9]", "value": "57.5 ± 8.78", "unit": "µM"}]}
{"smiles": "COc1ccc(-c2nc3ccc(Cl)cc3o2)c(OC)c1", "note": "[Compound 7, 6-Chloro-2-(2,4-dimethoxyphenyl)benzo[d]oxazole]", "values": [{"measurement": "ABTS+• scavenging activity (% inhibition)", "setting": "[1]", "value": "less than 5%"}, {"measurement": "IC50", "setting": "mushroom tyrosinase; [8]", "value": "> 200", "unit": "µM"}, {"measurement": "IC50", "setting": "mushroom tyrosinase; [9]", "value": "> 200", "unit": "µM"}]}
{"smiles": "COc1ccc(-c2nc3ccc(Cl)cc3o2)cc1O", "note": "[Compound 9, 5-(6-Chlorobenzo[d]oxazol-2-yl)-2-methoxyphenol]", "values": [{"measurement": "IC50", "setting": "mushroom tyrosinase; [8]", "value": "> 200", "unit": "µM"}, {"measurement": "IC50", "setting": "mushroom tyrosinase; [9]", "value": "> 200", "unit": "µM"}]}
{"smiles": "Oc1ccc(-c2nc3ccc(Cl)cc3o2)cc1O", "note": "[Compound 10, 4-(6-Chlorobenzo[d]oxazol-2-yl)benzene-1,2-diol]", "values": [{"measurement": "ABTS+• scavenging activity (% inhibition)", "setting": "[1]", "value": 81, "unit": "%"}, {"measurement": "DPPH radical scavenging activity", "setting": "[2]", "value": 86, "unit": "%"}, {"measurement": "IC50", "setting": "mushroom tyrosinase; [8]", "value": "> 200", "unit": "µM"}, {"measurement": "IC50", "setting": "mushroom tyrosinase; [9]", "value": "59 ± 4.74", "unit": "µM"}, {"measurement": "ROS scavenging activity", "setting": "[3]", "value": "strong to moderate ROS-scavenging activity"}]}
{"smiles": "Cc1ccc2oc(-c3ccc(O)cc3)nc2c1", "note": "[Compound 11, 4-(5-Methylbenzo[d]oxazol-2-yl)phenol]", "values": [{"measurement": "IC50", "setting": "mushroom tyrosinase; [8]", "value": "> 200", "unit": "µM"}, {"measurement": "IC50", "setting": "mushroom tyrosinase; [9]", "value": "76.8 ± 3.84", "unit": "µM"}]}
{"smiles": "COc1ccc(-c2nc3cc(C)ccc3o2)c(OC)c1", "note": "[Compound 12, 2-(2,4-Dimethoxyphenyl)-5-methylbenzo[d]oxazole]", "values": [{"measurement": "ABTS+• scavenging activity (% inhibition)", "setting": "[1]", "value": "less than 5%"}, {"measurement": "IC50", "setting": "mushroom tyrosinase; [8]", "value": "> 200", "unit": "µM"}, {"measurement": "IC50", "setting": "mushroom tyrosinase; [9]", "value": "> 200", "unit": "µM"}]}
{"smiles": "COc1ccc(-c2nc3cc(C)ccc3o2)cc1O", "note": "[Compound 14, 2-Methoxy-5-(5-methylbenzo[d]oxazol-2-yl)phenol]", "values": [{"measurement": "IC50", "setting": "mushroom tyrosinase; [8]", "value": "> 200", "unit": "µM"}, {"measurement": "IC50", "setting": "mushroom tyrosinase; [9]", "value": "146 ± 16.4", "unit": "µM"}]}
{"smiles": "Cc1ccc2oc(-c3ccc(O)c(O)c3)nc2c1", "note": "[Compound 15, 4-(5-Methylbenzo[d]oxazol-2-yl)benzene-1,2-diol]", "values": [{"measurement": "ABTS+• scavenging activity (% inhibition)", "setting": "[1]", "value": 83, "unit": "%"}, {"measurement": "DPPH radical scavenging activity", "setting": "[2]", "value": 86, "unit": "%"}, {"measurement": "IC50", "setting": "mushroom tyrosinase; [8]", "value": "> 200", "unit": "µM"}, {"measurement": "IC50", "setting": "mushroom tyrosinase; [9]", "value": "80.3 ± 5.24", "unit": "µM"}, {"measurement": "ROS scavenging activity", "setting": "[3]", "value": "strong ROS scavenging efficacy comparable to that of Trolox"}]}
{"smiles": "O=C1O[C@H]([C@@H](O)CO)C(O)=C1O", "note": "[L-ascorbic acid, reference compound]", "values": [{"measurement": "DPPH radical scavenging activity", "setting": "[2]", "value": 96, "unit": "%"}]}
{"smiles": "Cc1c(C)c2c(c(C)c1O)CCC(C)(C(=O)O)O2", "note": "(centres unmarked) [Trolox, reference compound]", "values": [{"measurement": "ABTS+• scavenging activity (% inhibition)", "setting": "[1]", "value": 99, "unit": "%"}, {"measurement": "ROS scavenging activity", "setting": "[3]", "value": "most potent ROS scavenging activity"}]}
{"smiles": "O=c1cc(CO)occ1O", "note": "[kojic acid, Kojic acid, reference compound]", "values": [{"measurement": "depigmentation effect on zebrafish larvae (photographs)", "setting": "zebrafish larvae [4]", "value": "reduced pigmentation in all regions except the eyes"}, {"measurement": "pigmentation area of zebrafish larvae (CS analyzer)", "setting": "zebrafish larvae [4]", "value": "decreased the pigmentation area compared to the control"}, {"measurement": "melanin content of zebrafish larvae, vs untreated control (100%)", "setting": "zebrafish larvae [5]", "value": 53, "unit": "%"}, {"measurement": "melanin formation, in situ tyrosinase activity in B16F10 cells", "setting": "[6]", "value": "markedly decreased melanin formation"}, {"measurement": "% tyrosinase activity in zebrafish larvae, vs untreated control (100%)", "setting": "[7]", "value": 57, "unit": "%"}]}
